Results from ChEMBL document CHEMBL1142025 (Bioorg Med Chem Lett, 2005).

How the values were obtained:
[1] = molecular target: T1, Human immunodeficiency virus type 1 protease (Human immunodeficiency virus 1, UniProt Q72874); assay: Binding affinity against human immunodeficiency virus (HIV) protease; assay type: single protein, human immuno deficiency virus protease
Renin = molecular target: T2, Renin (Homo sapiens, UniProt P00797); assay: Inhibitory concentration against renin
T2 sequence (P00797 whole entry): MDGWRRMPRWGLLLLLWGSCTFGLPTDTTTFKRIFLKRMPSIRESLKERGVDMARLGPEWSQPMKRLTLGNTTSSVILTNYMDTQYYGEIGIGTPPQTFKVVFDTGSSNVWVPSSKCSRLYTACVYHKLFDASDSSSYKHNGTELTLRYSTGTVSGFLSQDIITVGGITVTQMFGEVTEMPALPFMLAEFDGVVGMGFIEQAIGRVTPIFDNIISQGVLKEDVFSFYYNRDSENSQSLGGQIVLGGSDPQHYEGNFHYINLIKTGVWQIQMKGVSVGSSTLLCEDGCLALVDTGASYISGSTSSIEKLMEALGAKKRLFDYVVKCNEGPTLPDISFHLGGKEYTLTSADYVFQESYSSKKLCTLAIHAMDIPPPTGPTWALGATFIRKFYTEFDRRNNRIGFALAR

[2] = Inhibitory concentration against cathepsin
Pepsin A = Pepsin A (Homo sapiens, UniProt P0DJD9); assay: Inhibitory concentration against pepsin
Pepsin A, sequence (P0DJD9 whole entry): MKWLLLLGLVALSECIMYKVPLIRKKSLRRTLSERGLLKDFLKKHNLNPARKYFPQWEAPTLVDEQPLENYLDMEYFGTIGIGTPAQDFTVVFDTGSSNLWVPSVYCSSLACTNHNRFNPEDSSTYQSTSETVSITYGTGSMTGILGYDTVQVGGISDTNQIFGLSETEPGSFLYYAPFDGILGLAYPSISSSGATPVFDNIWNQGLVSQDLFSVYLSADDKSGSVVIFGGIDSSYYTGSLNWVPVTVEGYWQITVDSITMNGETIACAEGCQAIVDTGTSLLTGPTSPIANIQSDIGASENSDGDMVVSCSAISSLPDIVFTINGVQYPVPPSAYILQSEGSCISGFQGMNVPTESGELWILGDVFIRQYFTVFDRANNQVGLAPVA

[3] = molecular target: T1, Human immunodeficiency virus type 1 protease; assay: Inhibitory concentration against human immunodeficiency virus (HIV) protease; parameters: species or system human immuno deficiency virus protease

Structure (SMILES)	Ki [1] [nM]	other results
Cc1ccc(S(=O)(=O)NCCC[C@H](NC(=O)OCC2c3ccccc3-c3ccccc32)C(=O)O)cc1	26200	
Cc1ccc(S(=O)(=O)N(CC2CCCC2)[C@@H](CCCCNC(=O)OCC2c3ccccc3-c3ccccc32)C(=O)O)cc1	5.2	
CC(C)CN(C(=O)c1ccccc1)[C@@H](CCCCNC(=O)OCC1c2ccccc2-c2ccccc21)C(=O)O	> 300	
Cc1ccc(S(=O)(=O)N(CC(C)C)[C@@H](CCCCNC(=O)OC2c3ccccc3-c3ccccc32)C(=N)S)cc1	127	
Cc1ccc(S(=O)(=O)N(CC(C)C)[C@H](CN)CCCCNC(=O)OC2c3ccccc3-c3ccccc32)cc1	> 300	
Cc1ccc(S(=O)(=O)N(Cc2ccccc2)[C@@H](CCCCNC(=O)OCC2c3ccccc3-c3ccccc32)C(=O)O)cc1	19.6	
CC(C)(C)OC(=O)NCCCC[C@H](NC(=O)OCc1ccccc1)C(=O)O	> 100000	
CC(C)CN([C@@H](CCCCNC(=O)OCC1c2ccccc2-c2ccccc21)C(=O)O)S(=O)(=O)c1cccc2ccccc12	54.9	
Cc1ccc(S(=O)(=O)N(CC(C)C)[C@@H](CCCNC(=O)OCC2c3ccccc3-c3ccccc32)C(=O)O)cc1	180	
CCC(CC)CN([C@@H](CCCCNC(=O)OCC1c2ccccc2-c2ccccc21)C(=O)O)S(=O)(=O)c1ccc(C)cc1	15.2	
CC(C)CN([C@@H](CCCCNC(=O)OCC1c2ccccc2-c2ccccc21)C(=O)O)S(=O)(=O)c1cccs1	42	
Cc1ccc(S(=O)(=O)N(CC2CC2)[C@@H](CCCCNC(=O)OCC2c3ccccc3-c3ccccc32)C(=O)O)cc1	3.9	
Cc1ccc(S(=O)(=O)N(CC(C)C)[C@@H](CCCCNC(=O)OC2c3ccccc3-c3ccccc32)c2nnn[nH]2)cc1	> 300	
Cc1ccc(S(=O)(=O)N(CCCC[C@H](NC(=O)OCC2c3ccccc3-c3ccccc32)C(=O)O)CC(C)C)cc1	2000	
Cc1ccc(S(=O)(=O)N(CC(C)C)[C@@H](CCCCNC(=O)OCC2c3ccccc3-c3ccccc32)C(=O)O)cc1	5	IC50 (Renin): 6500 nM; IC50 [2]: 15600 nM; IC50 (Pepsin A): 5400 nM; IC50 [3]: 5 nM
Cc1ccc(S(=O)(=O)N(CC(C)C)[C@H](CO)CCCCNC(=O)OC2c3ccccc3-c3ccccc32)cc1	107	
Cc1ccc(S(=O)(=O)N(CC(C)C)[C@@H](CCCCNC(=O)OC2c3ccccc3-c3ccccc32)C(=O)NN)cc1	254	
CC(C)CN([C@@H](CCCCNC(=O)OCC1c2ccccc2-c2ccccc21)C(=O)O)S(=O)(=O)c1ccc(N)cc1	2.1	IC50 (Renin): 5200 nM; IC50 [2]: 10300 nM; IC50 (Pepsin A): 4100 nM; IC50 [3]: 2.1 nM

Structure (SMILES)	Ki [1] [nM]	other results
Cc1ccc(S(=O)(=O)N(CC(C)C)[C@@H](CCCCNC(=O)OC(C)(C)C)C(=O)O)cc1	> 250	
Cc1ccc(S(=O)(=O)N(CC(C)C)[C@@H](CNC(=O)OCC2c3ccccc3-c3ccccc32)C(=O)O)cc1	> 250	
Cc1ccc(S(=O)(=O)N(CC(C)C)[C@@H](CCCCNC(=O)CC2c3ccccc3-c3ccccc32)C(=O)O)cc1	89.7	
Cc1ccc(S(=O)(=O)N(CC(C)C)[C@@H](CCCCCNC(=O)OCC2c3ccccc3-c3ccccc32)C(=O)O)cc1	> 250	
Cc1ccc(S(=O)(=O)N(CC(C)C)[C@@H](CCCCNC(=O)OC2c3ccccc3-c3ccccc32)C(=O)O)cc1	105	
CC(C)CN([C@@H](CCCCNC(=O)OCC1c2ccccc2-c2ccccc21)C(=O)O)S(=O)(=O)c1ccc([N+](=O)[O-])cc1	7.2	
CC(C)CN([C@@H](CCCCNC(=O)OCC1c2ccccc2-c2ccccc21)C(=O)O)S(=O)(=O)c1ccc(F)cc1	17.4	
Cc1ccc(S(=O)(=O)N(CC(C)C)[C@@H](CCNC(=O)OCC2c3ccccc3-c3ccccc32)C(=O)O)cc1	> 250	
Cc1ccc(S(=O)(=O)N[C@@H](CCCCNC(=O)OC(C)(C)C)C(=O)O)cc1	> 100000	
Cc1ccc(S(=O)(=O)N(CC(C)C)[C@@H](CCCCNC(=O)OCc2ccccc2)C(=O)O)cc1	> 250	
CC(C)CN([C@@H](CCCCNC(=O)OCC1c2ccccc2-c2ccccc21)C(=O)O)S(=O)(=O)c1ccc(C(C)(C)C)cc1	257	
Cc1ccc(S(=O)(=O)N(CC(C)C)[C@@H](CCCCNC(=O)OC2c3ccccc3-c3ccccc32)C(=O)NO)cc1	245	
Cc1ccc(S(=O)(=O)N(CC(C)C)[C@H](C=O)CCCCNC(=O)OC2c3ccccc3-c3ccccc32)cc1	> 300	
COC(=O)[C@H](CCCCNC(=O)OC1c2ccccc2-c2ccccc21)N(CC(C)C)S(=O)(=O)c1ccc(C)cc1	> 300	
Cc1ccc(S(=O)(=O)N(CC(C)C)[C@@H](CCCCNC(=O)OC2c3ccccc3-c3ccccc32)C(N)=O)cc1	107	
CCC(C)CN([C@@H](CCCCNC(=O)OCC1c2ccccc2-c2ccccc21)C(=O)O)S(=O)(=O)c1ccc(C)cc1 (stereo partly drawn)	13.5	
Cc1ccc(S(=O)(=O)N(CC(C)C)[C@@H](CCCCNC(=O)OC2c3ccccc3-c3ccccc32)C(=N)N)cc1	280	
